Source: US20240343704A1, “HALO-SUBSTITUTED AMINO PYRIDINE COMPOUNDS AS INHIBITORS OF THE HAEMATOPOIETIC PROGENITOR KINASE 1 (HPK1)” (priority 2021, published 2024)
pIC50: −log10 of the molar value. Read-outs that look alike come from different tables or passages of the source.

Legend:
[1] = molecular target: T1, Recombinant (1-346) HPK1 (h) (Homo sapiens, UniProt Q92918); test: HPK1 Human STE Kinase Enzymatic Radiometric Assay; type: biochemical; details: for IC50: read-out: HPK1 IC50 nM Range*
T1 construct: Recombinant (1-346) HPK1 (h) is incubated with 8 mM MOPS pH 7.0
T1 sequence (Q92918 1-346): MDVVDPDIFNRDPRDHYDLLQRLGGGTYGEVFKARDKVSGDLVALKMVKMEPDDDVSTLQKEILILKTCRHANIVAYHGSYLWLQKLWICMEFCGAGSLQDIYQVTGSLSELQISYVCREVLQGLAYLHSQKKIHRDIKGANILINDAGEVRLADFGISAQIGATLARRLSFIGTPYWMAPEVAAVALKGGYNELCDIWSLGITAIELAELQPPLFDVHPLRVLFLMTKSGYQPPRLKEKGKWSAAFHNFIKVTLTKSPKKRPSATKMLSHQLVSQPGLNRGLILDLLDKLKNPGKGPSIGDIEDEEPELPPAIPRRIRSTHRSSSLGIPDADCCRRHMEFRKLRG
Procedure: A stock solution of 10 mM of test compound is prepared in DMSO. The compound plate was prepared by 3-fold and 9-point serial dilutions. […] The reaction is initiated by The addition of the Mg/ATP mix. After incubation for 40 minutes at RT, the reaction is stopped by the addition of phosphoric acid to a concentration of 0.5%.

Lck (h) = Lck (h) (Homo sapiens, UniProt P06239); test: Lck Human  Kinase Enzymatic Radiometric Assay; type: biochemical; details: for IC50: read-out: Lck IC50 nM Range*
How it was run: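 Substrate 33P-incorporation measured by scintillation counting after spotting on P30 filtermat and phosphoric acid washes. Human Lck reacted 40 min at RT in 50 mM Tris pH 7.5 with 10 mM MgAcetate, [gamma-33P]-ATP, 250 uM Cdc2 peptide, 0.1 mM EGTA and 0.1 mM Na3VO4.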

Sequence of Lck (h) (P06239 whole entry): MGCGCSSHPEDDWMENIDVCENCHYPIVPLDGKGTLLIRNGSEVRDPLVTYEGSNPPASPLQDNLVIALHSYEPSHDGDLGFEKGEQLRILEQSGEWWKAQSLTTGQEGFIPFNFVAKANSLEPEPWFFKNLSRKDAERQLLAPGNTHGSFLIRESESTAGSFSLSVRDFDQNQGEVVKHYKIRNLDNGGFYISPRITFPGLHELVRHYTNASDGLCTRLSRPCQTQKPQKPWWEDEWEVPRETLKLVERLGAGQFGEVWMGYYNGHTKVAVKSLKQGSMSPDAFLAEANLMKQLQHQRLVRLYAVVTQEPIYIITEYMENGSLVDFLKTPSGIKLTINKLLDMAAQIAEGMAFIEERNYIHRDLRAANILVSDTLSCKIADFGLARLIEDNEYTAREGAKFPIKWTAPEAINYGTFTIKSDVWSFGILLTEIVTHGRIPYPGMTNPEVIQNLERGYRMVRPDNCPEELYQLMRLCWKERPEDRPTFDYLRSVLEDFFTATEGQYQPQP

SMILES | IC50 [1] [nM] | IC50 (Lck (h)) [nM] | pIC50 [1] | pIC50 (Lck (h))
Nc1nc(F)c(-c2ccc(C3CCN(CCO)CC3)cc2)cc1-c1ccc2c(c1)CCNC2=O [I-119, 6-(2-amino-6-fluoro-5-(4-(1-(2-hydroxyethyl)piperidin-4-yl)phenyl)pyridin-3-yl)-3,4-dihydroisoquinolin-1(2H)-one] | 0.1 to 10 | > 1000 |  | 
Nc1nc(F)c(-c2ccc(CN3CCOCC3)cc2)cc1-c1ccc2c(c1)CCNC2=O [I-257, 6-(2-amino-6-fluoro-5-(4-(morpholinomethyl)phenyl)pyridin-3-yl)-3,4-dihydroisoquinolin-1(2H)-one] | 11 to 100 | > 1000 |  | 
Nc1nc(F)c(-c2ccc(C3CCNCC3)cc2)cc1-c1cc2c(cc1F)C(=O)NCC2 [I-238, 6-(2-amino-6-fluoro-5-(4-(piperidin-4-yl)phenyl)pyridin-3-yl)-7-fluoro-3,4-dihydroisoquinolin-1(2H)-one 2,2,2-trifluoroacetate] | 0.1 to 10 | > 1000 |  | 
CN1CCc2cc(-c3cc(-c4ccc5c(c4)CCNC5=O)c(N)nc3F)ccc2C1 [I-254, 6-(2-amino-6-fluoro-5-(2-methyl-1,2,3,4-tetrahydroisoquinolin-6-yl)pyridin-3-yl)-3,4-dihydroisoquinolin-1(2H)-one] | 11 to 100 | > 1000 |  | 
CO[C@@H]1CCN(c2ccc(-c3cc(-c4ccc5c(c4)CCNC5=O)c(N)nc3F)cc2)C1 [I-114, (R)-6-(2-amino-6-fluoro-5-(4-(3-methoxypyrrolidin-1-yl)phenyl)pyridin-3-yl)-3,4-dihydroisoquinolin-1(2H)-one] | 11 to 100 | > 1000 |  | 
CC(C)N1C[C@H]2C[C@@]2(c2ccc(-c3cc(-c4cc5c(cc4F)C(=O)NCC5)c(N)nc3F)cc2)C1 [I-141, 6-(2-amino-6-fluoro-5-(4-((1R,5S)-3-isopropyl-3-azabicyclo[3.1.0]hexan-1-yl)phenyl)pyridin-3-yl)-7-fluoro-3,4-dihydroisoquinolin-1(2H)-one] | 0.1 to 10 | > 1000 |  | 
CC(C)[C@H]1CN(c2ccc(-c3cc(-c4ccc5c(c4)CCNC5=O)c(N)nc3Cl)cc2)CCO1 [I-136, (S)-6-(2-amino-6-chloro-5-(4-(2-isopropylmorpholino)phenyl)pyridin-3-yl)-3,4-dihydroisoquinolin-1(2H)-one] | 101 to 1000 | > 1000 |  | 
Nc1nc(F)c(-c2ccc(N3CCN(CC4CC4)CC3)cc2)cc1-c1cc2c(cn1)C(=O)NCC2 [I-400, 6-(2-amino-5-(4-(4-(cyclopropylmethyl)piper-azin-1-yl)phenyl)-6-fluoropyridin-3-yl)-3,4-dihydro-2,7-naphthyridin-1(2H)-one] | 0.1 to 10 | 101 to 1000 |  | 
CNCc1nc2cc(-c3cc(-c4ccc(N5CCN(C(C)C)CC5)cc4)c(F)nc3N)ccc2c(=O)[nH]1 [I-410, 7-(2-amino-6-fluoro-5-(4-(4-isopropylpiperazin-1-yl)phenyl)pyridin-3-yl)-2-((methylamino)methyl)quin-azolin-4(3H)-one] | 11 to 100 | > 1000 |  | 
C[C@H]1CC(Oc2ccc(-c3cc(-c4ccc5c(c4)CCNC5=O)c(N)nc3F)cc2)C[C@H](C)N1 (stereo partly drawn) [I-144, 6-(2-amino-5-(4-(((2S,6S)-2,6-dimethylpiperidin-4-yl)oxy)phenyl)-6-fluoropyridin-3-yl)-3,4-dihydroisoquinolin-1(2H)-one] | 0.1 to 10 | 101 to 1000 |  | 
CC(C)N1CC=C(c2ccc(-c3cc(-c4ccc5c(c4)CCNC5=O)c(N)nc3F)cc2)C1 [I-121, 6-(2-amino-6-fluoro-5-(4-(1-isopropyl-2,5-dihydro-1H-pyrrol-3-yl)phenyl)pyridin-3-yl)-3,4-dihydroisoquinolin-1(2H)-one] | 0.1 to 10 | > 1000 |  | 
CN1CCN(c2ccc(-c3cc(-c4ccc5c(c4)CNC5=O)c(N)nc3F)cc2)CC1 [I-32, 5-(2-amino-6-fluoro-5-(4-(4-methylpiperazin-1-yl)phenyl)pyridin-3-yl)isoindolin-1-one] | 11 to 100 | > 1000 |  | 
Nc1nc(F)c(-c2ccc3c(c2)COC2(CCNCC2)O3)cc1-c1ccc2c(c1)CCNC2=O [I-181, 6-(2-amino-6-fluoro-5-(4H-spiro[benzo[d][1,3]dioxine-2,4′-piperidin]-6-yl)pyridin-3-yl)-3,4-dihydroisoquinolin-1(2H)-one] |  |  | 8.00 to 10.00 | < 6.00
Nc1nc(F)c(-c2cc3n(n2)CC(=O)NCC3)cc1-c1ccc2c(c1)CCNC2=O [I-229, 2-(6-amino-2-fluoro-5-(1-oxo-1,2,3,4-tetrahydroisoquinolin-6-yl)pyridin-3-yl)-5,6-dihydro-4H-pyrazolo[1,5-d][1,4]diazepin-7(8H)-one] | 11 to 100 | > 1000 |  | 
CC(C)N1CCc2cc(-c3cc(-c4ccc5c(c4)CCNC5=O)c(N)nc3F)nn2CC1=O [I-228, 2-(6-amino-2-fluoro-5-(1-oxo-1,2,3,4-tetrahydroisoquinolin-6-yl)pyridin-3-yl)-6-isopropyl-5,6-dihydro-4H-pyrazolo[1,5-d][1,4]diazepin-7(8H)-one] | 11 to 100 | > 1000 |  | 
CC(C)N1CC=C(c2ccc(-c3cc(-c4cc5c(cc4F)C(=O)NCC5)c(N)nc3F)cc2)CC1 [I-295, 6-(2-amino-6-fluoro-5-(4-(1-isopropyl-1,2,3,6-tetrahydropyridin-4-yl)phenyl)pyridin-3-yl)-7-fluoro-3,4-dihydroisoquinolin-1(2H)-one] | 0.1 to 10 | > 1000 |  | 
Nc1nc(F)c(-c2ccc3c(c2)CCNC3=O)cc1-c1ccc2c(c1)CCNC2=O [I-333, 6,6′-(2-amino-6-fluoropyridine-3,5-diyl)bis(3,4-dihydroisoquinolin-1(2H)-one)] | 0.1 to 10 | > 1000 |  | 
COc1cc(-c2cc(-c3ccc4c(c3)CCNC4=O)c(N)nc2F)ccc1OC1CCNCC1 [I-151, 6-(2-amino-6-fluoro-5-(3-methoxy-4-(piperidin-4-yloxy)phenyl)pyridin-3-yl)-3,4-dihydroisoquinolin-1(2H)-one] | 11 to 100 | > 1000 |  | 
CC(=O)N1CCC2(CC1)CC(=O)c1cc(-c3cc(-c4ccc5c(c4)CCNC5=O)c(N)nc3F)ccc1O2 [I-192, 1′-acetyl-6-(6-amino-2-fluoro-5-(1-oxo-1,2,3,4-tetrahydroisoquinolin-6-yl)pyridin-3-yl)spiro[chromane-2,4′-piperidin]-4-one] | 0.1 to 10 | > 1000 |  | 
Nc1nc(F)c(-c2ccc3c(c2)COC2(CCN(CC(F)(F)F)CC2)O3)cc1-c1ccc2c(c1)CCNC2=O [I-195, 6-(2-amino-6-fluoro-5-(1′-(2,2,2-trifluoroethyl)-4H-spiro[benzo[d][1,3]dioxine-2,4′-piperidin]-6-yl)pyridin-3-yl)-3,4-dihydroisoquinolin-1(2H)-one] | 11 to 100 | > 1000 |  | 
CC(C)[C@H]1CN(c2ccc(-c3cnc(N)c(-c4ccc5c(c4)CCNC5=O)c3F)c(F)c2)CCO1 [I-7, (S)-6-(2-amino-4-fluoro-5-(2-fluoro-4-(2-isopropylmorpholino)phenyl)pyridin-3-yl)-3,4-dihydroisoquinolin-1(2H)-one] | 101 to 1000 | > 1000 |  | 
CC(C)N1CCN(c2ccc(-c3cc(-c4ccc5c(=O)[nH]ccc5c4)c(N)nc3F)cc2)CC1 [I-364, 6-(2-amino-6-fluoro-5-(4-(4-isopropylpiperazin-1-yl)phenyl)pyridin-3-yl)isoquinolin-1(2H)-one] | 0.1 to 10 | > 1000 |  | 
Nc1nc(F)c(-c2ccc([C@@]34C[C@@H]3CN(C3CCOCC3)C4)cc2)cc1-c1ccc2c(c1)CCNC2=O [I-66, 6-(2-amino-6-fluoro-5-(4-((1R,5S)-3-(tetrahydro-2H-pyran-4-yl)-3-azabicyclo[3.1.0]hexan-1-yl)phenyl)pyridin-3-yl)-3,4-dihydroisoquinolin-1(2H)-one] | 0.1 to 10 | > 1000 |  | 
CN1CCN(c2ccc(-c3cc(-c4ccc5c(c4)CCNC5=O)c(N)nc3F)cc2F)CC1 [I-40, 6-(2-amino-6-fluoro-5-(3-fluoro-4-(4-methylpiperazin-1-yl)phenyl)pyridin-3-yl)-3,4-dihydroisoquinolin-1(2H)-one] | 0.1 to 10 | > 1000 |  | 
CC(C)N1CCC(c2ccc(-c3cc(-c4ccc5c(c4)CCNC5=O)c(N)nc3F)cc2)CC1 [I-79, 6-(2-amino-6-fluoro-5-(4-(1-isopropylpiperidin-4-yl)phenyl)pyridin-3-yl)-3,4-dihydroisoquinolin-1(2H)-one] | 0.1 to 10 | > 1000 |  | 
Nc1nc(F)c(-c2ccc(OC3CN(CC4CC4)C3)cc2)cc1-c1ccc2c(c1)CCNC2=O [I-321, 6-(2-amino-5-(4-((1-(cyclopropylmethyl)azetidin-3-yl)oxy)phenyl)-6-fluoropyridin-3-yl)-3,4-dihydroisoquinolin-1(2H)-one] | 0.1 to 10 | > 1000 |  | 
COCCN1CCOCC1c1ccc(-c2cc(-c3ccc4c(c3)CCNC4=O)c(N)nc2F)cc1 (stereo not drawn) [I-134, 6-(2-amino-6-fluoro-5-(4-(4-(2-methoxyethyl)morpholin-3-yl)phenyl)pyridin-3-yl)-3,4-dihydroisoquinolin-1(2H)-one] | 0.1 to 10 | > 1000 |  | 
